Measurements reported in publication PMC4177392, “Modulation of Cytochrome P450 Metabolism and Transport across Intestinal Epithelial Barrier by Ginger Biophenolics” (PLoS ONE, 2014).
In brackets after ≈: the same amount, converted by molar mass.

Tests used:
CYP2E1 = CYP2E1 (Homo sapiens, UniProt P05181); test: CYP2E1 inhibition in human liver microsomes (substrate chlorzoxazone)
Experimental: (§1) Stock solution for each CYP specific probe substrate was prepared in such a way that the final concentration is below the reported Km value.
(§2) A microsome-buffer-substrate mixture (MBS mix) was prepared for each isozyme by pre-mixing appropriate volumes of sodium phosphate buffer (pH 7.4, 50 mM), microsomes and substrate (Table S2 in File S1). 179 µL of MBS mix was transferred to 96-well reaction plate to which 1 µL of inhibitor stock solution was added to achieve the final target inhibitor concentration. The reaction plate was pre-incubated for 10 min at 37°C followed by reaction initiation by addition of 20 µL of 10 mM NADPH solution. The reaction plate was then incubated at 37°C for a predetermined time period following which it was quenched with 200 µL ACN for all CYPs and 200 µL 1% formic acid in water∶ACN (70∶30) for CYP1A2. In all cases, the final incubations after addition of substrate and inhibitor contained 0.1% DMSO (v/v), and the total organic solvent (DMSO and ACN) content was less than or equal to 1% (v/v). The details of final substrate concentration, incubation time, microsomal protein concentration in the reaction mixtures and the metabolites monitored for each isozyme tested are presented in Table S3 in File S1.
(§3) All samples were processed using protein precipitation method and analyzed by employing positive (for all CYPs) and negative (for CYP2A6, 2C19 and 2E1) ionization mode in liquid chromatography tandem mass spectrometry (API4000, Applied Biosystems, USA). The peak area ratio of analyte to IS was used for calculations. An isocratic method comprising 5 mM ammonium formate and ACN (40∶60) with 0.05% formic acid was used for elution. For CYP2C19, a mobile phase consisting of 5 mM ammonium formate and ACN (30∶70) was used. The analytes and internal standards were retained on BDS Hypersil Phenyl (150×4.6 mm, 5 µ, Thermo, USA) column. A flow rate of 0.5 mL/min (CYP1A2), 0.6 mL/min (CYP2C19, CYP2E1), 0.7 mL/min (CYP2C9), 0.8 mL/min (CYP2A6, CYP3A), 1.0 mL/min (CYP2B6, CYP2C8, CYP2D6) was maintained using Shimadzu Prominence solvent delivery system (LC-20AD). The mobile phase was degassed using degasser (DGU-20A3), samples were loaded into autosampler (SIL-HTc) and the column temperature was maintained at 40°C by column oven (CTO-20A). Injection volumes for the samples were as follows: 5 µL (CYP1A2, CYP2D6, and CYP3A), 10 µL (CYP2B6, CYP2C8, and CYP2E1) and 20 µL (CYP2A6, CYP2C9, and CYP2C19). Data was collected and processed using Sciex Analyst 1.4.2. All the structures of inhibitors, substrates, metabolites and internal standards for each CYP enzyme are represented in Table S6 in File S1.
The IC50 value was estimated from the percentage reduction in CYP activity at eleven inhibitor concentrations with respect to control.
(§4) The data was analysed using 4PL (parameter logistic model), 3PLFB (bottom fixed), 3PLFT (top fixed), 2PL (top and bottom fixed), and the relative IC50 was with lowest standard error was further manipulation. Absolute IC50 was calculated from this relative IC50 by using the equation below: [drawing 3]

CYP3A4 [1] = target: T1, CYP3A4 (Homo sapiens, UniProt P08684); test: CYP3A4 inhibition in human liver microsomes (substrate midazolam); assay type: in vitro ADME; conditions: human liver microsomes; substrate midazolam; gingerols and GE
Experimental: (§5) The highest concentration of GE used in the assay was 500 µg/mL equivalent. Stock solution for each CYP specific probe substrate was prepared in such a way that the final concentration is below the reported Km value.
(§6) A microsome-buffer-substrate mixture (MBS mix) was prepared for each isozyme by pre-mixing appropriate volumes of sodium phosphate buffer (pH 7.4, 50 mM), microsomes and substrate (Table S2 in File S1). 179 µL of MBS mix was transferred to 96-well reaction plate to which 1 µL of inhibitor stock solution was added to achieve the final target inhibitor concentration. The reaction plate was pre-incubated for 10 min at 37°C followed by reaction initiation by addition of 20 µL of 10 mM NADPH solution. The reaction plate was then incubated at 37°C for a predetermined time period following which it was quenched with 200 µL ACN for all CYPs and 200 µL 1% formic acid in water∶ACN (70∶30) for CYP1A2. In all cases, the final incubations after addition of substrate and inhibitor contained 0.1% DMSO (v/v), and the total organic solvent (DMSO and ACN) content was less than or equal to 1% (v/v). The details of final substrate concentration, incubation time, microsomal protein concentration in the reaction mixtures and the metabolites monitored for each isozyme tested are presented in Table S3 in File S1. The incubations were performed in singlet for individual gingerols and in duplicate for GE along with respective positive controls.
(§7) All samples were processed using protein precipitation method and analyzed by employing positive (for all CYPs) and negative (for CYP2A6, 2C19 and 2E1) ionization mode in liquid chromatography tandem mass spectrometry (API4000, Applied Biosystems, USA). The peak area ratio of analyte to IS was used for calculations. An isocratic method comprising 5 mM ammonium formate and ACN (40∶60) with 0.05% formic acid was used for elution. For CYP2C19, a mobile phase consisting of 5 mM ammonium formate and ACN (30∶70) was used. The analytes and internal standards were retained on BDS Hypersil Phenyl (150×4.6 mm, 5 µ, Thermo, USA) column. A flow rate of 0.5 mL/min (CYP1A2), 0.6 mL/min (CYP2C19, CYP2E1), 0.7 mL/min (CYP2C9), 0.8 mL/min (CYP2A6, CYP3A), 1.0 mL/min (CYP2B6, CYP2C8, CYP2D6) was maintained using Shimadzu Prominence solvent delivery system (LC-20AD). The mobile phase was degassed using degasser (DGU-20A3), samples were loaded into autosampler (SIL-HTc) and the column temperature was maintained at 40°C by column oven (CTO-20A). […]

CYP3A4 [2] = target: T1, CYP3A4; test: CYP3A4 inhibition in human liver microsomes (substrate testosterone); assay type: in vitro ADME
Experimental: as §5
(§8) A microsome-buffer-substrate mixture (MBS mix) was prepared for each isozyme by pre-mixing appropriate volumes of sodium phosphate buffer (pH 7.4, 50 mM), microsomes and substrate (Table S2 in File S1). 179 µL of MBS mix was transferred to 96-well reaction plate to which 1 µL of inhibitor stock solution was added to achieve the final target inhibitor concentration. The reaction plate was pre-incubated for 10 min at 37°C followed by reaction initiation by addition of 20 µL of 10 mM NADPH solution. The reaction plate was then incubated at 37°C for a predetermined time period following which it was quenched with 200 µL ACN for all CYPs and 200 µL 1% formic acid in water∶ACN (70∶30) for CYP1A2. In all cases, the final incubations after addition of substrate and inhibitor contained 0.1% DMSO (v/v), and the total organic solvent (DMSO and ACN) content was less than or equal to 1% (v/v). […] The incubations were performed in singlet for individual gingerols and in duplicate for GE along with respective positive controls.

CYP2C19 = CYP2C19 (Homo sapiens, UniProt P33261); test: CYP2C19 inhibition in human liver microsomes (substrate (S)-mephenytoin); assay type: in vitro ADME
Experimental: as §5, §6, §7

[3] = humans, oral 2 g GE; as glucuronide and sulfate conjugates; cited from earlier work
CYP1A2 = target: T2, CYP1A2 (Homo sapiens, UniProt P05177); test: CYP1A2 inhibition in human liver microsomes (substrate phenacetin); assay type: in vitro ADME
T2 construct: […]; tissue XenoTechLLC H0610
T2 sequence (P05177 1-516): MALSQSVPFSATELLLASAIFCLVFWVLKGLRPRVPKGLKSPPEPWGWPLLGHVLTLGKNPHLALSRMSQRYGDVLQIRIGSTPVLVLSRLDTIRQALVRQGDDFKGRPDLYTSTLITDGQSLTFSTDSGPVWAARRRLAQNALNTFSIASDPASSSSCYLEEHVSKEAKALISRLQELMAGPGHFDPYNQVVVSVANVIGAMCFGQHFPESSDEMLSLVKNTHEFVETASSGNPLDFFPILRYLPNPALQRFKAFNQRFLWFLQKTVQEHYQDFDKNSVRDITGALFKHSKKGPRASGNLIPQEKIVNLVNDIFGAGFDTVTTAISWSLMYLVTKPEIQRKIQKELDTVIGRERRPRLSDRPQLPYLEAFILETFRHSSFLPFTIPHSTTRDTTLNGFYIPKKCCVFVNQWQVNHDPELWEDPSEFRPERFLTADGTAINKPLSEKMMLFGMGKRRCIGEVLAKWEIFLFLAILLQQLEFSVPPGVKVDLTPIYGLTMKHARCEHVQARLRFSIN
Experimental: as §5, §8

Caco-2 monolayer = test: Caco-2 permeability assay; conditions: 10 µM; for Intracellular (cell) accumulation: direction not given; for Papp: n = 3, mean ± SD
CYP2C8 = target: T3, CYP2C8 (Homo sapiens, UniProt P10632); test: CYP2C8 inhibition in human liver microsomes (substrate amodiaquine); assay type: in vitro ADME
T3 sequence (P10632 1-490): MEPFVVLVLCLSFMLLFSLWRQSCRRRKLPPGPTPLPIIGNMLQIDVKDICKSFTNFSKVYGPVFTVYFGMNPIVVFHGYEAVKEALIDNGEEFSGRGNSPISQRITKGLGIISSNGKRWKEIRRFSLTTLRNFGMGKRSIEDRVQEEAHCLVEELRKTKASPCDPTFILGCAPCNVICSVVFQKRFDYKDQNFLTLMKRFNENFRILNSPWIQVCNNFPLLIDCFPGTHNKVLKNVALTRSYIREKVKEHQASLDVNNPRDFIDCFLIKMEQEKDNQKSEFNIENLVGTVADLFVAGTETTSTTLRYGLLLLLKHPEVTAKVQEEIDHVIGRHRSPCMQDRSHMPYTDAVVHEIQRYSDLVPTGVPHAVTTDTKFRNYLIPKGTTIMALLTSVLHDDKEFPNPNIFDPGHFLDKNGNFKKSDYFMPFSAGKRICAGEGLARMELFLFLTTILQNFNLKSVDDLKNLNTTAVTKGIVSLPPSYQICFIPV
Experimental: as §5, §8

CYP2B6 = target: T4, CYP2B6 (Homo sapiens, UniProt P20813); test: CYP2B6 inhibition in human liver microsomes (substrate bupropion); assay type: in vitro ADME
T4 sequence (P20813 1-491): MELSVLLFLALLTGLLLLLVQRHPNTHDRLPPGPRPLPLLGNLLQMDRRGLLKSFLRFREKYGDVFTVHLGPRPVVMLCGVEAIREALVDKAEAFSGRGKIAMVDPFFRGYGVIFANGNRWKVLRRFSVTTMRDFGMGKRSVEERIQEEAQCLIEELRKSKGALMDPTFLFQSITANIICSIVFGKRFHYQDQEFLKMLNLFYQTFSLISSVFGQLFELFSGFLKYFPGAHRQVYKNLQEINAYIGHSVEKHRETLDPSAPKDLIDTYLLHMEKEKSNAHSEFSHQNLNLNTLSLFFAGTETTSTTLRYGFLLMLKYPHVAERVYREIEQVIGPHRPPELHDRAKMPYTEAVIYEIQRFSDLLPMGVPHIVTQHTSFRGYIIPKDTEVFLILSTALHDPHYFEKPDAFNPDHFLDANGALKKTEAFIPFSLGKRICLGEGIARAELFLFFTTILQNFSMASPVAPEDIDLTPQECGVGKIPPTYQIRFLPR
Experimental: as §5, §8

CYP2C9 = CYP2C9 (Homo sapiens, UniProt P11712); test: CYP2C9 inhibition in human liver microsomes (substrate diclofenac)
Experimental: as §1, §2
as §3, with “All the structures of inhibitors, substrates, metabolites and internal standards for each CYP enzyme are represented in Table S6 in File S1.” left out
as §4

CYP2A6 = target: T5, CYP2A6 (Homo sapiens, UniProt P11509); test: CYP2A6 inhibition in human liver microsomes (substrate coumarin); assay type: in vitro ADME
T5 sequence (P11509 1-494): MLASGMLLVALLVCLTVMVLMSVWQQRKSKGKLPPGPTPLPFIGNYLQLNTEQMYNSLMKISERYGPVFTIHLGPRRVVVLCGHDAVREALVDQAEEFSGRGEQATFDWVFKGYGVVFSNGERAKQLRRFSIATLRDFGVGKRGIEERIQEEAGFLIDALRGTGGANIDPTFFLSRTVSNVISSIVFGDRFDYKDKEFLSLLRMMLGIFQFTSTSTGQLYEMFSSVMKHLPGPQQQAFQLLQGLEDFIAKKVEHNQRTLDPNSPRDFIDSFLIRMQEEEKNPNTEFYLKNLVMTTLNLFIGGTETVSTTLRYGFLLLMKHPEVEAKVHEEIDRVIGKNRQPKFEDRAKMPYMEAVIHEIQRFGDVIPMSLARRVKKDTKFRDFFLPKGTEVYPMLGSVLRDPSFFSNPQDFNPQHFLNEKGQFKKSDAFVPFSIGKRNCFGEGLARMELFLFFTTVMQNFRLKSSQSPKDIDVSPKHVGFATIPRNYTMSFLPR
Experimental: as §5, §8

CYP2D6 = CYP2D6 (Homo sapiens, UniProt P10635); test: CYP2D6 inhibition in human liver microsomes (substrate dextromethorphan); assay type: in vitro ADME
Chain of CYP2D6 (P10635 whole entry): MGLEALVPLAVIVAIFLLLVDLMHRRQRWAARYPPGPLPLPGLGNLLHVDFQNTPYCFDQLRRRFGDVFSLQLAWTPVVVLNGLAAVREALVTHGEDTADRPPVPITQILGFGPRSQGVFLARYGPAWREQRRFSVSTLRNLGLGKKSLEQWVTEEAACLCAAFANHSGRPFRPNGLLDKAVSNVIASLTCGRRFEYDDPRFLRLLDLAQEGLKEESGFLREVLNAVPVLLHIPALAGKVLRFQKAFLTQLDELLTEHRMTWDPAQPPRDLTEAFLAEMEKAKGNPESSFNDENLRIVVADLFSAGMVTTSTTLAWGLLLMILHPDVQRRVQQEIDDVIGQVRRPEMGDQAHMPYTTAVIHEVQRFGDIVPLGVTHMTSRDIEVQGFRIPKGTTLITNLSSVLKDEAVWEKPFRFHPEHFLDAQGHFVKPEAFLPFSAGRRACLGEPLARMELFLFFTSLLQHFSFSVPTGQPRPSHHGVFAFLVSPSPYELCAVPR
Experimental: as §5, §6, §7

T1 sequence (P08684 2-503): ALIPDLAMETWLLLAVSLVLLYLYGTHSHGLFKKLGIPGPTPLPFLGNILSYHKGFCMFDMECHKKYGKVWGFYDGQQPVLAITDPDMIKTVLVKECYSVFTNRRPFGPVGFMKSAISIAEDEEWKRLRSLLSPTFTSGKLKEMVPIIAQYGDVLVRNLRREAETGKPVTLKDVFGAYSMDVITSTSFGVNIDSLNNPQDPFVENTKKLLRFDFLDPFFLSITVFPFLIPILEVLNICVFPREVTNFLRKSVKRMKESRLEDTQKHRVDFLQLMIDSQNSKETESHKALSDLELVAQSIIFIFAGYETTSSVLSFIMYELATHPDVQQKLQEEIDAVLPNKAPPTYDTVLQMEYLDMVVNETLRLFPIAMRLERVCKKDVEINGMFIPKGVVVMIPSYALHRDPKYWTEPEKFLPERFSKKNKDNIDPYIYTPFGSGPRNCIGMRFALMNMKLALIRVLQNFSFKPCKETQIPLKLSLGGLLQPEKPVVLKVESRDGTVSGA
Chain of CYP2C9 (P11712 whole entry): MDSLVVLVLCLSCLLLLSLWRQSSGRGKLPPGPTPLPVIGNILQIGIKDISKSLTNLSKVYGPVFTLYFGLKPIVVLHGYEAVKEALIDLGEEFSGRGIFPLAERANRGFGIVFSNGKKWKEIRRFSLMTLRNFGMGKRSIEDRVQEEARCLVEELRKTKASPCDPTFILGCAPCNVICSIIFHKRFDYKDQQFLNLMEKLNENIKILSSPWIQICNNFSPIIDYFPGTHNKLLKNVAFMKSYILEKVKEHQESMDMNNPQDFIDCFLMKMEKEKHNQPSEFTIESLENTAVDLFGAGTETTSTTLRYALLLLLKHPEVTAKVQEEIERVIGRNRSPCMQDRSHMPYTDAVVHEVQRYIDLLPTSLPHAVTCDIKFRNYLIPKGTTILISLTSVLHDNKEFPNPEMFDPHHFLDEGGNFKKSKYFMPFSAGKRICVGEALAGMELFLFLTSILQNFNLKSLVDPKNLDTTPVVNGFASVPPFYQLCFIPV
Chain of CYP2E1 (P05181 whole entry): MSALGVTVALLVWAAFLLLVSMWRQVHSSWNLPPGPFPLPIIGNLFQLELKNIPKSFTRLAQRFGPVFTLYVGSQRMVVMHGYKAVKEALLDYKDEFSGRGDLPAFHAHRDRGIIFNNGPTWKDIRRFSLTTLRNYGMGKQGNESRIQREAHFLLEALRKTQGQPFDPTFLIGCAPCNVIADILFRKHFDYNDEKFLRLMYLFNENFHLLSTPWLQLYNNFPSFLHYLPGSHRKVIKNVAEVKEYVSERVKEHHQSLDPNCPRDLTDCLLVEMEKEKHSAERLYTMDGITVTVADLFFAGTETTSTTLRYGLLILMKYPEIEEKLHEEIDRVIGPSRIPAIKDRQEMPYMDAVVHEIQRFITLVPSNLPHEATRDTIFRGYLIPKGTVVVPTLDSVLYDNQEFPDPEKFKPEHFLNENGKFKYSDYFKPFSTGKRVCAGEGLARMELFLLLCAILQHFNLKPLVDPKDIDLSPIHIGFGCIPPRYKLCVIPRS
Chain of CYP2C19 (P33261 whole entry): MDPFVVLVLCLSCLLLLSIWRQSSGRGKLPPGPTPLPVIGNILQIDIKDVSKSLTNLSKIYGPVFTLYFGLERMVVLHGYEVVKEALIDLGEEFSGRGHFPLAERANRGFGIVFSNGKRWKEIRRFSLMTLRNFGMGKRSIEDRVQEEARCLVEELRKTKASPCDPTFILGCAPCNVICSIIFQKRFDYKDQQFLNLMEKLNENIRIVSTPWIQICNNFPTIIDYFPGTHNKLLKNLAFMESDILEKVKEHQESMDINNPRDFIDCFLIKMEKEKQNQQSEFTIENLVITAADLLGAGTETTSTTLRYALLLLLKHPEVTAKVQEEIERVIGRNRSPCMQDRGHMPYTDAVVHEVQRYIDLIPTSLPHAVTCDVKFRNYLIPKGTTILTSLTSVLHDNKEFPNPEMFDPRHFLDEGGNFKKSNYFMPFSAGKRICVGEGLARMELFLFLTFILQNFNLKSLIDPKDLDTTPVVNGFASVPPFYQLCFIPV

CCCCCCCCC[C@H](O)CC(=O)CCc1ccc(O)c(OC)c1 [10G, 10-gingerol]
IC50 CYP2E1 (CYP2E1; microsomes): >35 mg/L
IC50 CYP3A4 (midazolam) (CYP3A4 [1]): >35 mg/L
IC50 CYP3A4 (testosterone) (CYP3A4 [2]; microsomes): 2.5 mg/L (≈ 7.13 µM)
IC50 CYP2C19 (CYP2C19; microsomes): 2.3 mg/L (≈ 6.56 µM)
Cmax / circulating concentration in humans [3]: 0.53 ± 0.40 µg/mL
IC50 CYP1A2 (CYP1A2; microsomes): > 35 mg/L
Efflux Ratio (Caco-2 monolayer): 1.8
Intracellular (cell) accumulation (Caco-2 monolayer): 15%
Intracellular accumulation (Caco-2 monolayer; A→B): 15%
Papp (Caco-2 monolayer; A→B): 9 ± 7 nm/s
Intracellular accumulation (Caco-2 monolayer; B→A): 10%
Papp (Caco-2 monolayer; B→A): 17 ± 6 nm/s
IC50 CYP2C8 (CYP2C8; microsomes): 0.7 mg/L (≈ 2 µM)
IC50 CYP2B6 (CYP2B6; microsomes): 1.5 mg/L (≈ 4.28 µM)
IC50 CYP2C9 (CYP2C9; microsomes): 2.6 mg/L (≈ 7.42 µM)
IC50 CYP2A6 (CYP2A6; microsomes): 34 mg/L (≈ 97 µM)
IC50 CYP2D6 (CYP2D6; microsomes): 19 mg/L (≈ 54.2 µM)

CCCCCCC[C@H](O)CC(=O)CCc1ccc(O)c(OC)c1 [8G, 8-gingerol]
IC50 CYP2E1 (CYP2E1; human liver microsomes, substrate chlorzoxazone, gingerols and GE): 30 mg/L (≈ 93 µM)
IC50 CYP3A4 (midazolam) (CYP3A4 [1]): >32 mg/L
IC50 CYP3A4 (testosterone) (CYP3A4 [2]; human liver microsomes, substrate testosterone, gingerols and GE): 2.6 mg/L (≈ 8.06 µM)
IC50 CYP2C19 (CYP2C19; human liver microsomes, substrate (S)-mephenytoin, gingerols and GE): 2.6 mg/L (≈ 8.06 µM)
Cmax / circulating concentration in humans [3]: 0.23 ± 0.16 µg/mL
IC50 CYP1A2 (CYP1A2; human liver microsomes, substrate phenacetin, gingerols and GE): 8.8 mg/L (≈ 27.3 µM)
Efflux Ratio (Caco-2 monolayer): 1.3
Intracellular (cell) accumulation (Caco-2 monolayer): < 1%
Intracellular accumulation (Caco-2 monolayer; A→B): 14%
Papp (Caco-2 monolayer; A→B): 53 ± 8 nm/s
Intracellular accumulation (Caco-2 monolayer; B→A): 12%
Papp (Caco-2 monolayer; B→A): 69 ± 6 nm/s
IC50 CYP2C8 (CYP2C8; human liver microsomes, substrate amodiaquine, gingerols and GE): 0.70 mg/L (≈ 2.17 µM)
IC50 CYP2B6 (CYP2B6; human liver microsomes, substrate bupropion, gingerols and GE): 2.6 mg/L (≈ 8.06 µM)
IC50 CYP2C9 (CYP2C9; human liver microsomes, substrate diclofenac, gingerols and GE): 2.8 mg/L (≈ 8.68 µM)
IC50 CYP2A6 (CYP2A6; human liver microsomes, substrate coumarin, gingerols and GE): 19 mg/L (≈ 58.9 µM)
IC50 CYP2D6 (CYP2D6; human liver microsomes, substrate dextromethorphan, gingerols and GE): 24 mg/L (≈ 74.4 µM)
